Measurements reported in US20040072205A1, “Methods for treating neuronal disorders” (priority 2002, published 2004).

What was measured:
[1] = test system: hSOD1^G93A transgenic ALS mice; experiment: Minocycline treatment of ALS mice: Rotarod onset and mortality; type: in vivo, mouse
Experimental: We tested the effectiveness of minocycline on a mouse model of ALS and investigated its mechanism of neuroprotection. […] We evaluated the effect of minocycline on one of the ALS mouse models expressing the mutant human SOD1^G93A transgene. Minocycline (10 mg/kg body weight/day) was injected beginning at five weeks of age. Mutant hSOD1^G93A transgenic mice were evaluated weekly on a Rotarod to follow disease progression.
Minocycline administration started at six weeks of age at a slightly higher dose (11 mg/kg body weight/day).
ALS mice (Jackson Laboratories, Bar Harbor, Me.) were injected intraperitoneally daily with saline or minocycline (Sigma, St. Louis, Mo.). Strength and coordination were evaluated weekly by Rotarod (Columbus Instruments, Columbus, Ohio). Disease onset was defined as the first day a mouse could not remain on the Rotarod for 10 min at 15 rpm. Mortality was scored as age of death or age when the mouse was unable to right itself within 30 seconds (Li et al., supra).

[2] = test system: human patients with ALS; conditions: cited from earlier work

Structure (SMILES)	Onset of impaired motor performance (Rotarod), age ([1]; 10 mg/kg body weight/day i.p. from five weeks of age, saline 90.3±2.2 days, P<0.001) [days]	Survival, age ([1]; 10 mg/kg body weight/day i.p. from five weeks of age, saline 125.6±3.4 days, P<0.01) [days]	Mortality, age ([1]; modified protocol: 11 mg/kg body weight/day from six weeks of age, n=8/group, saline 126.3±2.7 days, P<0.05) [days]	side effects [2]
CN(C)c1ccc(O)c2c1C[C@H]1C[C@H]3[C@H](N(C)C)C(O)=C(C(N)=O)C(=O)[C@@]3(O)C(O)=C1C2=O [Minocycline]	109.0 ± 1.5	136.8 ± 1.2	139.0 ± 2.1	–
Nc1nc2ccc(OC(F)(F)F)cc2s1 [riluzole]	–	–	–	causes liver damage
